Experimental data from patent US8618287B2, “Derivatives of triazines and uracils, their preparation and their application in human therapeutics” (Pierre Fabre Medicament, priority 2008, dated 2013).

Tests used:
[1] = molecular target: T1, Human SCD-1 (Homo sapiens, UniProt O00767); assay: Human SCD-1 enzymatic activity from microsomes of HepG2 cells (conversion of stearic acid into oleic acid); type: biochemical; details: 10 μM compound, microsomal fraction of HepG2 cells, relative to carrier 0.1% DMSO; for inhibition at 10 µM: read-out: HSCD-1 (HEPG2) % inh. (10 μM)
T1 construct: adding 125 μg of microsomal fraction of HepG2 cells; host or cells: HepG2 human hepatocarcinoma cells (microsomal fraction)
T1 sequence (O00767 1-359): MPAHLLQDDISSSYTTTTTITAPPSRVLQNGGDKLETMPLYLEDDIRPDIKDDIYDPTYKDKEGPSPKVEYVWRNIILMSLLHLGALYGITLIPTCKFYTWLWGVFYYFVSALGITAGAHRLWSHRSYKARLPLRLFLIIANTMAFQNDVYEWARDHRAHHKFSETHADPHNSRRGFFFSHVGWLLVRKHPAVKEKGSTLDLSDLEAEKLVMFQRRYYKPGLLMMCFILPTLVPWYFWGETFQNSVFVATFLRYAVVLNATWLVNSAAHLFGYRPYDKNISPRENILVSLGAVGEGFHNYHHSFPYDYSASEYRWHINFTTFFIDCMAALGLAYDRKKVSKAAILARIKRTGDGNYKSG
Method: In vitro: Human SCD-1 enzymatic activity from microsomes of HepG2 cells after treatment with inhibitory compounds (inhibition %).
Human hepatocarcinoma HepG2 cells (ATCC, HB-8065) are grown to confluence and then trypsinized. The cell pellet is taken up in 10 mM Tris buffer (pH 7.4), saccharose (250 mM) DTT (1 mM) and then the cells are lyzed by sonication. The microsomes are obtained after centrifugation at 10,000 g for 20 minutes a 4° C. followed by centrifugation of the supernatant at 100,000 g for 60 minutes a 4° C. The pellet is taken up in 10 mM Tris buffer (pH 7.4) saccharose (250 mM) at 4° C. and the microsomal proteins are assayed and stored at −196° C. (liquid nitrogen).
The enzymatic reaction measures the conversion of stearic acid (a C18:0 fatty acid) into oleic acid (C18:1 fatty acid) by SCD-1. The enzymatic reaction is started by adding 125 μg of microsomal fraction of HepG2 cells to tubes (total reaction volume of 500 μl) containing 62 μM of stearic acid (45 μM of stearic acid and 17 μM of [^14C] stearic acid) in a phosphate buffer at 100 mM (pH 7.16) with 7.2 mM of ATP, 0.54 mM of CoA, 6 mM of MgCl2, 0.8 mM of NADH and the inhibitory compound or the carrier (0.1% DMSO). The tubes are incubated for 20 minutes at 37° C. and the enzymatic reaction is then stopped by adding KOH (12%) and saponification for 30 minutes at 80° C. After acidification (3N HCl), the fatty acids are extracted twice with ethyl ether, evaporated under nitrogen before being taken up with a methanol/dichloromethane (3:1) mixture. The product of the reaction (C18:1) is separated from the substrate of the reaction (C18:0) by HPLC (Perkin Elmer, C18 reverse phase column) coupled to a on-line radioactivity detector (FlowOne). Enzymatic activity is calculated in picomoles of stearic acid converted into oleic acid per minute and per mg of protein. For each inhibitory compound, an inhibition % is determined relatively to the reference enzymatic activity (carrier 0.1% DMSO). Sterculic acid is the reference inhibitory compound (Gomez F. E., Bauman D. E., Ntambi J. M., Fox B. G. Effects of sterculic acid on stearoyl-CoA desaturase in differentiating […] adipocytes. Biochem Biophys Res Commun. 300 316-326 (2003)).

SMILES | melting point | inhibition at 10 µM [1] | HSCD-1 (HEPG2) % inh. (10 μM) [1]
Cn1nc(N2CCN(C(=O)c3ccccc3C(F)(F)F)CC2)c(=O)[nH]c1=O [Example 2, 2-methyl-6-[4-(2-trifluoromethyl-benzoyl)-piperazin-1-yl]-2H-[1,2,4]triazine-3,5-dione] | 146 °C | 63% | –
Cn1c(=O)[nH]nc(N2CCN(C(=O)c3ccccc3C(F)(F)F)CC2)c1=O [Example 4, 4-methyl-6-[4-(2-trifluoromethyl-benzoyl)-piperazin-1-yl]-2H-[1,2,4]triazine-3,5-dione] | 235 °C | 77% | –
Cn1nc(N2CCN(C(=O)c3ccccc3C(F)(F)F)CC2)c(=O)n(C)c1=O [Example 5, 2,4-dimethyl-6-[4-(2-trifluoromethyl-benzoyl)-piperazin-1-yl]-2H-[1,2,4]triazine-3,5-dione] | 76 °C | 43% | –
O=C(c1ccccc1C(F)(F)F)N1CCN(c2c[nH]c(=O)[nH]c2=O)CC1 [Example 6, 5-[4-(2-trifluoromethyl-benzoyl)-piperazin-1-yl]-1H-pyrimidine-2,4-dione] | 285 °C | 73% | –
Cn1c(=O)c(N2CCC(Oc3ccccc3C(F)(F)F)CC2)nn(CCCC(=O)c2cccs2)c1=O [Example 19, 4-methyl-2-(4-oxo-4-thiophen-2-yl-butyl)-6-[4-(2-trifluoromethyl-phenoxy)-piperidin-1-yl]-2H-[1,2,4]triazine-3,5-dione] | – | 57% | –
Cn1c(=O)c(N2CCC(Oc3ccccc3Cl)CC2)nn(CCC#N)c1=O [Example 23, 3-{6-[4-(2-chloro-phenoxy)-piperidin-1-yl]-4-methyl-3,5-dioxo-4,5-dihydro-3H-[1,2,4]triazin-2-yl}-propionitrile] | – | 73% | –
Cn1c(=O)c(N2CCC(Oc3ccccc3Cl)CC2)nn(CCCC(F)(F)F)c1=O [Example 25, 6-[4-(2-chloro-phenoxy)-piperidin-1-yl]-4-methyl-2-(4,4,4-trifluoro-butyl)-2H-[1,2,4]triazine-3,5-dione] | – | 70% | –
Cn1nc(N2CCC(Oc3ccccc3Cl)CC2)c(=O)n(C)c1=O [Example 27, 6-[4-(2-chloro-phenoxy)-piperidin-1-yl]-2,4-dimethyl-2H-[1,2,4]triazine-3,5-dione] | – | 82% | –
Cn1nc(N2CCC(Oc3ccccc3F)CC2)c(=O)n(C)c1=O [Example 28, 6-[4-(2-fluoro-phenoxy)-piperidin-1-yl]-2,4-dimethyl-2H-[1,2,4]triazine-3,5-dione] | – | 50% | –
Cn1nc(N2CCC(Oc3cc(C(F)(F)F)ccc3Cl)CC2)c(=O)n(C)c1=O [Example 29, 6-[4-(2-chloro-5-trifluoromethyl-phenoxy)-piperidin-1-yl]-2,4-dimethyl-2H-[1,2,4]triazine-3,5-dione] | 160 °C | 71% | –
Cn1nc(N2CCC(Oc3cc(F)ccc3Cl)CC2)c(=O)n(C)c1=O [Example 30, 6-[4-(2-chloro-5-fluoro-phenoxy)-piperidin-1-yl]-2,4-dimethyl-2H-[1,2,4]triazine-3,5-dione] | 168 °C | 86% | –
Cc1ccccc1OC1CCN(c2nn(C)c(=O)n(C)c2=O)CC1 [Example 31, 2,4-dimethyl-6-(4-o-tolyloxy-piperidin-1-yl)-2H-[1,2,4]triazine-3,5-dione] | 102 °C | 73% | –
Cn1nc(N2CCC(Oc3ccc(F)cc3)CC2)c(=O)n(C)c1=O [Example 33, 6-[4-(4-fluoro-phenoxy)-piperidin-1-yl]-2,4-dimethyl-2H-[1,2,4]triazine-3,5-dione] | 70 °C | 48% | –
Cn1nc(N2CCN(C(=O)c3cc(F)ccc3C(F)(F)F)CC2)c(=O)n(C)c1=O [Example 42, 6-[4-(5-fluoro-2-trifluoromethyl-benzoyl)-piperazin-1-yl]-2,4-dimethyl-2H-[1,2,4]triazine-3,5-dione] | 87 °C | 80% | –
Cn1c(=O)c(N2CCN(C(=O)c3cc(F)ccc3C(F)(F)F)CC2)nn(CCCC(F)(F)F)c1=O [Example 47, 6-[4-(5-fluoro-2-trifluoromethyl-benzoyl)-piperazin-1-yl]-4-methyl-2-(4,4,4-trifluoro-butyl)-2H-[1,2,4]triazine-3,5-dione] | – | 84% | –
CC(C)CCn1nc(N2CCN(C(=O)c3cc(F)ccc3C(F)(F)F)CC2)c(=O)n(C)c1=O [Example 48, 6-[4-(5-fluoro-2-trifluoromethyl-benzoyl)-piperazin-1-yl]-4-methyl-2-(3-methyl-butyl)-2H-[1,2,4]triazine-3,5-dione] | – | 64% | –
Cn1nc(N2CCN(Cc3ccccc3C(F)(F)F)CC2)c(=O)n(C)c1=O [Example 55, 2,4-dimethyl-6-[4-(2-trifluoromethyl-benzyl)-piperazin-1-yl]-2H-[1,2,4]triazine-3,5-dione] | 92 °C | 65% | –
Cn1c(=O)c(N2CCN(Cc3ccccc3C(F)(F)F)CC2)nn(CCCC(F)(F)F)c1=O [Example 57, 4-methyl-2-(4,4,4-trifluoro-butyl)-6-[4-(2-trifluoromethyl-benzyl)-piperazin-1-yl]-2H-[1,2,4]triazine-3,5-dione] | – | 71% | –
Cn1c(=O)[nH]nc(N2CCN(Cc3ccccc3C(F)(F)F)CC2)c1=O [Example 64, 4-methyl-6-[4-(2-trifluoromethyl-benzyl)-piperazin-1-yl]-2H-[1,2,4]triazine-3,5-dione] | 205 °C | 57% | –
Cn1c(=O)[nH]nc(N2CCN(C(=O)c3cc(F)ccc3C(F)(F)F)CC2)c1=O [Example 69, 6-[4-(5-fluoro-2-trifluoromethyl-benzoyl)-piperazin-1-yl]-4-methyl-2H-[1,2,4]triazine-3,5-dione] | – | 84% | –
Cn1c(=O)[nH]nc(N2CCN(C(=O)c3ccc(F)cc3C(F)(F)F)CC2)c1=O [Example 70, 6-[4-(4-fluoro-2-trifluoromethyl-benzoyl)-piperazin-1-yl]-4-methyl-2H-[1,2,4]triazine-3,5-dione] | – | 66% | –
Cn1c(=O)[nH]nc(N2CCN(Cc3ccc(F)cc3C(F)(F)F)CC2)c1=O [Example 71, 6-[4-(4-fluoro-2-trifluoromethyl-benzyl)-piperazin-1-yl]-4-methyl-2H-[1,2,4]triazine-3,5-dione] | – | 50% | –
CCCCn1nc(N2CCN(C(=O)c3ccccc3C(F)(F)F)CC2)c(=O)n(C)c1=O [Example 74, 2-butyl-4-methyl-6-[4-(2-trifluoromethyl-benzoyl)-piperazin-1-yl]-2H-[1,2,4]triazine-3,5-dione] | – | 60% | –
CCCCCCCn1c(=O)[nH]nc(N2CCC(Oc3ccccc3Cl)CC2)c1=O [Example 76, 6-[4-(2-chloro-phenoxy)-piperidin-1-yl]-4-heptyl-2H-[1,2,4]triazine-3,5-dione] | 95 °C | 62% | –
Cc1ccccc1-n1nc(N2CCC(Oc3ccccc3C(F)(F)F)CC2)c(=O)n(C)c1=O [Example 79, 4-methyl-2-o-tolyl-6-[4-(2-trifluoromethyl-phenoxy)-piperidin-1-yl]-2H-[1,2,4]triazine-3,5-dione] | 106 °C | 54% | –
Cn1c(=O)c(N2CCC(Oc3ccccc3C(F)(F)F)CC2)nn(-c2ccc(F)cc2)c1=O [Example 80, 2-(4-fluoro-phenyl)-4-methyl-6-[4-(2-trifluoromethyl-phenoxy)-piperidin-1-yl]-2H-[1,2,4]triazine-3,5-dione] | 111 °C | 87% | –
CCCCCCCCC1=C(CCCCCCCC(=O)O)C1 [Sterculic acid, reference compound] | – | – | 100%
